Tests used:
[1] = target: CDK4/Cyclin D1 (Homo sapiens (Human), UniProt P11802); assay: TR-FRET kinase inhibition assay, CDK4/Cyclin D1; assay type: biochemical; conditions: 1 mM ATP, 0.15 μM Rb (Ser780)-biotin substrate, read-out: CDK4D1 IC50
Procedure: Compounds disclosed herein were tested for inhibition of CDK4/Cyclin D1 or CDK6/Cyclin D3 kinase in an assay based on the time-resolved fluorescence-resonance energy transfer (TR-FRET) methodology. […] The kinase was incubated with compound for 60 minutes at room temperature and the reaction was initiated by the addition of ATP and Rb (Ser780)-biotin substrate. After reaction at room temperature for 120 minutes, an equal volume of stop/detection solution was added according to the manufacture's instruction (Cisbio Bioassays). The stop/detection solution contained Streptavidin-XL665 and Anti-pRb (Ser780) mAb-Eu Cryptate in Detection buffer (Cisbio Bioassays). […] The inhibition percentage of CDK4/Cyclin D1 or CDK6/Cyclin D3 kinase activity in presence of increasing concentrations of compounds was calculated based on the ratio of fluorescence at 665 nm to that at 620 nm. The IC50 for each compound was derived from fitting the data to the four-parameter logistic equation by Dotmatics.

[2] = target: CDK6/Cyclin D3 (Homo sapiens (Human), UniProt Q00534); assay: TR-FRET kinase inhibition assay, CDK6/Cyclin D3; assay type: biochemical; conditions: 1 mM ATP, 0.15 μM Rb (Ser780)-biotin substrate, read-out: CDK6D3 IC50
CDK6/Cyclin D3, sequence (Q00534 whole entry): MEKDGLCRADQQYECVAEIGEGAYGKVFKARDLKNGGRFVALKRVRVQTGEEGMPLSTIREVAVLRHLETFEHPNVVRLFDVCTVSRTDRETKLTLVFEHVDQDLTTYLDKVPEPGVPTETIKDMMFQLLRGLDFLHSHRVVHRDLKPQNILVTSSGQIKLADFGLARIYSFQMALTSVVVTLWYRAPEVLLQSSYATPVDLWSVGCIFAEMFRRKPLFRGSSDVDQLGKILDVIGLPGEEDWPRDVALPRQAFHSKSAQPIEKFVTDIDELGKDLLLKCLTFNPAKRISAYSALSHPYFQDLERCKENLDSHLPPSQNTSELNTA
CDK6/Cyclin D3, sequence (P30281 whole entry partner): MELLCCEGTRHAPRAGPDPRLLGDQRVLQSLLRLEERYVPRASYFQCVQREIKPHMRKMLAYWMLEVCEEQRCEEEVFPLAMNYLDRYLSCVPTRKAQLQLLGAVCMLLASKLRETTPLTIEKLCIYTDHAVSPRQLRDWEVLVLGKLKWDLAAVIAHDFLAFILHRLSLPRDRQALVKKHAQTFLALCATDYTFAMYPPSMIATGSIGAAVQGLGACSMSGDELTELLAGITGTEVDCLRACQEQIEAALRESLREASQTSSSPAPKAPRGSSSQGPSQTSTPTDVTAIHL
Procedure: Compounds disclosed herein were tested for inhibition of CDK4/Cyclin D1 or CDK6/Cyclin D3 kinase in an assay based on the time-resolved fluorescence-resonance energy transfer (TR-FRET) methodology. The assay was carried out in 384-well low volume black plates in a reaction mixture containing CDK4/Cyclin D1 or CDK6/Cyclin D3, 1 mM ATP, 0.15 μM Rb (Ser780)-biotin substrate and 0-10 μM compound in buffer containing 50 mM HEPES pH7.0, 0.02% NaN3, 0.01% BSA, 0.1 mM Orthovanadate, 50 mM MgCl2, 1 mM DTT and 0.005% Tween-20. The kinase was incubated with compound for 60 minutes at room temperature and the reaction was initiated by the addition of ATP and Rb (Ser780)-biotin substrate. After reaction at room temperature for 120 minutes, an equal volume of stop/detection solution was added according to the manufacture's instruction (Cisbio Bioassays). The stop/detection solution contained Streptavidin-XL665 and Anti-pRb (Ser780) mAb-Eu Cryptate in Detection buffer (Cisbio Bioassays). Plates were incubated at room temperature for 60 minutes, and the TR-FRET signals (ex337 nm, em665 nm/620 nm) were recorded on a PHERAstar FSX plate reader (BMG Labtech). The inhibition percentage of CDK4/Cyclin D1 or CDK6/Cyclin D3 kinase activity in presence of increasing concentrations of compounds was calculated based on the ratio of fluorescence at 665 nm to that at 620 nm. The IC50 for each compound was derived from fitting the data to the four-parameter logistic equation by Dotmatics.

CDK4/Cyclin D1, sequence (P11802 whole entry): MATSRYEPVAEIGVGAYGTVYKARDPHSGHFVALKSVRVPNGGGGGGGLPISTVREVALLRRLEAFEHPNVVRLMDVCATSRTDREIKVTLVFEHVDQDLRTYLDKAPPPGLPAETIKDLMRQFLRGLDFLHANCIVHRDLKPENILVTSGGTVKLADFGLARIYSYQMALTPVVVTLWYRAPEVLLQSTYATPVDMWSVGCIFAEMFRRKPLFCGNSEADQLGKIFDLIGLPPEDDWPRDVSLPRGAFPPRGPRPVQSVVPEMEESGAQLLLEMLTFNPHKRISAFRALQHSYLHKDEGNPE
CDK4/Cyclin D1, sequence (P24385 whole entry partner): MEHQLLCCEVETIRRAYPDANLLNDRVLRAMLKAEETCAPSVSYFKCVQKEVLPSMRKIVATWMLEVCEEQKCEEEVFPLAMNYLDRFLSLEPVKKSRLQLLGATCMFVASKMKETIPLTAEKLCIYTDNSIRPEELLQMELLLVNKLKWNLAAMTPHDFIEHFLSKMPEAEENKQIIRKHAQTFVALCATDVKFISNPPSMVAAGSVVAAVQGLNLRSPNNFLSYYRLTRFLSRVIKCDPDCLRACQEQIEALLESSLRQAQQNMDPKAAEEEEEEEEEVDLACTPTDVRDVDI

IC50 [1] [nM]	IC50 [2] [nM]	Structure (SMILES)
15	345	Cc1cc(=O)c2ccc(-c3nc(N[C@@H]4CCOC[C@H]4O)ncc3F)cc2n1C(C)C [Example 6, 7-(5-fluoro-2-(((3S,4R)-3-hydroxytetrahydro-2H-pyran-4-yl)amino)pyrimidin-4-yl)-1-isopropyl-2-methylquinolin-4(1H)-one]
14	574	CNC(=O)c1cc(=O)c2ccc(-c3nc(N[C@@H]4CCOC[C@H]4O)ncc3F)cc2n1C(C)C [Example 7, 7-(5-fluoro-2-(((3S,4R)-3-hydroxytetrahydro-2H-pyran-4-yl)amino)pyrimidin-4-yl)-1-isopropyl-N-methyl-4-oxo-1,4-dihydroquinoline-2-carboxamide]
28	420	Cc1cc(=O)c2ccc(-c3nc(N[C@@H]4CCOC[C@H]4O)ncc3Cl)cc2n1C(C)C [Example 11, 7-(5-chloro-2-(((3S,4R)-3-hydroxytetrahydro-2H-pyran-4-yl)amino)pyrimidin-4-yl)-1-isopropyl-2-methylquinolin-4(1H)-one]
93	539	CC(C)n1c(C(=O)N2CCOCC2)cc(=O)c2ccc(-c3nc(N[C@@H]4CCOC[C@H]4O)ncc3Cl)cc21 [Example 13, 7-(5-chloro-2-(((3S,4R)-3-hydroxytetrahydro-2H-pyran-4-yl)amino)pyrimidin-4-yl)-1-isopropyl-2-(morpholine-4-carbonyl)quinolin-4(1H)-one]
42	714	CNC(=O)c1cc(=O)c2ccc(-c3nc(N[C@@H]4CCOC[C@H]4O)ncc3Cl)cc2n1C(C)C [Example 14, 7-(5-chloro-2-(((3S,4R)-3-hydroxytetrahydro-2H-pyran-4-yl)amino)pyrimidin-4-yl)-1-isopropyl-N-methyl-4-oxo-1,4-dihydroquinoline-2-carboxamide]
7.5	120	CC(C)n1c(CO)cc(=O)c2ccc(-c3nc(N[C@@H]4CCOC[C@H]4O)ncc3F)cc21 [Example 17, 7-(5-fluoro-2-(((3S,4R)-3-hydroxytetrahydro-2H-pyran-4-yl)amino)pyrimidin-4-yl)-2-(hydroxymethyl)-1-isopropylquinolin-4(1H)-one]
24	504	CNC(=O)c1cc(=O)c2c(F)cc(-c3nc(N[C@@H]4CCOC[C@H]4O)ncc3F)cc2n1C(C)C [Example 19, 5-fluoro-7-(5-fluoro-2-(((3S,4R)-3-hydroxytetrahydro-2H-pyran-4-yl)amino)pyrimidin-4-yl)-1-isopropyl-N-methyl-4-oxo-1,4-dihydroquinoline-2-carboxamide]
35	385	CC(C)n1c(C(=O)NCCC#N)cc(=O)c2ccc(-c3nc(N[C@@H]4CCOC[C@H]4O)ncc3Cl)cc21 [Example 21, 7-(5-chloro-2-(((3S,4R)-3-hydroxytetrahydro-2H-pyran-4-yl)amino)pyrimidin-4-yl)-N-(2-cyanoethyl)-1-isopropyl-4-oxo-1,4-dihydroquinoline-2-carboxamide]
49	931	CC(C)n1c(C(=O)NCC(C)(C)O)cc(=O)c2ccc(-c3nc(N[C@@H]4CCOC[C@H]4O)ncc3Cl)cc21 [Example 22, 7-(5-chloro-2-(((3S,4R)-3-hydroxytetrahydro-2H-pyran-4-yl)amino)pyrimidin-4-yl)-N-(2-hydroxy-2-methylpropyl)-1-isopropyl-4-oxo-1,4-dihydroquinoline-2-carboxamide]
53	445	CNC(=O)c1c(Cl)c(=O)c2ccc(-c3nc(N[C@@H]4CCOC[C@H]4O)ncc3F)cc2n1C(C)C [Example 23, 3-chloro-7-(5-fluoro-2-(((3S,4R)-3-hydroxytetrahydro-2H-pyran-4-yl)amino)pyrimidin-4-yl)-1-isopropyl-N-methyl-4-oxo-1,4-dihydroquinoline-2-carboxamide]

More lines, now with the values behind:

Structure (SMILES)	IC50 [1] [nM]	IC50 [2] [nM]
CC(C)n1ccc(=O)c2c(Cl)cc(-c3nc(N[C@@H]4CCOC[C@H]4O)ncc3Cl)cc21 [Example 1, 5-chloro-7-(5-chloro-2-(((3S,4R)-3-hydroxytetrahydro-2H-pyran-4-yl)amino)pyrimidin-4-yl)-1-isopropylquinolin-4(1H)-one]	101	808
Cc1cn(C(C)C)c2cc(-c3nc(N[C@@H]4CCOC[C@H]4O)ncc3F)ccc2c1=O [Example 2, 7-(5-fluoro-2-(((3S,4R)-3-hydroxytetrahydro-2H-pyran-4-yl)amino)pyrimidin-4-yl)-1-isopropyl-3-methylquinolin-4(1H)-one]	68	1220
CC(C)n1ccc(=O)c2ccc(-c3nc(N[C@@H]4CCOC[C@H]4O)ncc3F)cc21 [Example 3, 7-(5-fluoro-2-(((3S,4R)-3-hydroxytetrahydro-2H-pyran-4-yl)amino)pyrimidin-4-yl)-1-isopropylquinolin-4(1H)-one]	78	1250
CC(=O)c1cn(C(C)C)c2cc(-c3nc(N[C@@H]4CCOC[C@H]4O)ncc3F)ccc2c1=O [Example 4, 3-acetyl-7-(5-fluoro-2-(((3S,4R)-3-hydroxytetrahydro-2H-pyran-4-yl)amino)pyrimidin-4-yl)-1-isopropylquinolin-4(1H)-one]	251	979
CC(C)n1cc(C(C)(C)O)c(=O)c2ccc(-c3nc(N[C@@H]4CCOC[C@H]4O)ncc3F)cc21 [Example 5, 7-(5-fluoro-2-(((3S,4R)-3-hydroxytetrahydro-2H-pyran-4-yl)amino)pyrimidin-4-yl)-3-(2-hydroxypropan-2-yl)-1-isopropylquinolin-4(1H)-one]	249	3240
COc1cn(C(C)C)c2cc(-c3nc(N[C@@H]4CCOC[C@H]4O)ncc3F)ccc2c1=O [Example 8, 7-(5-fluoro-2-(((3S,4R)-3-hydroxytetrahydro-2H-pyran-4-yl)amino)pyrimidin-4-yl)-1-isopropyl-3-methoxyquinolin-4(11H)-one]	162	1780
CC(C)n1cc(C2CC2)c(=O)c2ccc(-c3nc(N[C@@H]4CCOC[C@H]4O)ncc3F)cc21 [Example 9, 3-cyclopropyl-7-(5-fluoro-2-(((3S,4R)-3-hydroxytetrahydro-2H-pyran-4-yl)amino)pyrimidin-4-yl)-1-isopropylquinolin-4(1H)-one]	59	590
Cc1cc(=O)c2ccc(-c3nc(N[C@@H]4CCOC[C@H]4O)ncc3F)cc2n1C1CCCC1 [Example 10, 1-cyclopentyl-7-(5-fluoro-2-(((3S,4R)-3-hydroxytetrahydro-2H-pyran-4-yl)amino)pyrimidin-4-yl)-2-methylquinolin-4(1H)-one]	40	1440
CC(C)n1cc(Cl)c(=O)c2ccc(-c3nc(N[C@@H]4CCOC[C@H]4O)ncc3F)cc21 [Example 12, 3-chloro-7-(5-fluoro-2-(((3S,4R)-3-hydroxytetrahydro-2H-pyran-4-yl)amino)pyrimidin-4-yl)-1-isopropylquinolin-4(1H)-one]	258	1930
Cc1c(Cl)c(=O)c2ccc(-c3nc(N[C@@H]4CCOC[C@H]4O)ncc3F)cc2n1C(C)C [Example 15, 3-chloro-7-(5-fluoro-2-(((3S,4R)-3-hydroxytetrahydro-2H-pyran-4-yl)amino)pyrimidin-4-yl)-1-isopropyl-2-methylquinolin-4(1H)-one]	15	255
Cc1c(C)n(C(C)C)c2cc(-c3nc(N[C@@H]4CCOC[C@H]4O)ncc3F)ccc2c1=O [Example 16, 7-(5-fluoro-2-(((3S,4R)-3-hydroxytetrahydro-2H-pyran-4-yl)amino)pyrimidin-4-yl)-1-isopropyl-2,3-dimethylquinolin-4(1H)-one]	8.3	257
CC(C)n1c(CN2CCO[C@H](C)C2)cc(=O)c2ccc(-c3nc(N[C@@H]4CCOC[C@H]4O)ncc3F)cc21 [Example 18, 7-(5-fluoro-2-(((3S,4R)-3-hydroxytetrahydro-2H-pyran-4-yl)amino)pyrimidin-4-yl)-1-isopropyl-2-(((R)-2-methylmorpholino)methyl)quinolin-4(1H)-one]	27	1210
CC(C)n1c(CN(C)C)cc(=O)c2ccc(-c3nc(N[C@@H]4CCOC[C@H]4O)ncc3F)cc21 [Example 20, 2-((dimethylamino)methyl)-7-(5-fluoro-2-(((3S,4R)-3-hydroxytetrahydro-2H-pyran-4-yl)amino)pyrimidin-4-yl)-1-isopropylquinolin-4(1H)-one]	15	510
